Experimental data as given in patent US9758484B2 (Asieris Pharmaceutical Technologies Co., Ltd., priority 2013, dated 2017).
Where “and” joins values, the source holds several entries; their conditions need not be identical. Identical values can stand only once. Counter-ions that a name gives are not always drawn. Like-named read-outs stand apart in the source and are kept apart here. One block for each molecule: values may come before it.

Legend:
[1] = Solubility tests of nitroxoline and nitroxoline salts in aqueous buffers and water; assay type: physicochemical; details: for solubility at 30 min: thermodynamic from solid; for solubility at a physiologically relevant pH: pH of 4.5 to 8, in contrast to nitroxoline and acid addition salts
Procedure: 1) Aqueous buffer solutions with varying pH were prepared as follows: • i. Water: distilled water; • ii. pH=1.2 buffer: 7.65 mL 36.5% HCl solution was diluted to 1000 mL with water; • iii. pH=4.5 buffer: 18 g sodium acetate and 9.8 mL acetic acid were diluted to 1000 mL with water; • iv. pH=5.0 buffer: sodium hydroxide was added to 0.2 mol/L monosodium phosphate (NaH2PO4) solution until the pH was adjusted to 5.0; • v. pH=6.0 buffer: 18 g sodium acetate were added into 20 mL acetic acid solution (1 M), and the mixture was diluted to 500 mL with water; • vi. pH=6.8 buffer: 250 mL of 0.2 M monopotassium phosphate (KH2PO4) solution were added to 118 mL of 0.2 M sodium hydroxide solution, and the mixture was diluted to 1000 mL with water; • vii. pH=7.4 buffer: 1.36 g monopotassium phosphate (KH2PO4) were added to 79 mL of 0.1 M sodium hydroxide solution, and the mixture was diluted to 200 mL with water; and • viii pH=8.0 buffer: 5.59 g potassium biphosphate (K2HPO4) and 0.41 g monopotassium. phosphate (KH2PO4) were added to 1000 mL water and mixed.
2) Solubility tests were performed generally as follows:
Under a temperature of 25±2° C., 10 mg of each salt sample was weighed and added to a 100 mL volumetric bottle. 0.25 mL buffer was added to the bottle, which was shaken vigorously for 30 seconds every 5 min.
If the sample was not completely dissolved, 0.7 mL of the same buffer was added, and dissolution was observed by the same shaking procedure.
If the sample was not completely dissolved, 8.5 mL of the same buffer was added, and dissolution was observed by the same shaking procedure.
If the sample was not completely dissolved, 85 mL of the same buffer was added, and dissolution was observed by the same shaking procedure.

[2] = In vivo urinary excretion of nitroxoline and nitroxoline salts in mice; set-up: species or system CD-1 ICR mice
Procedure: Urine samples were collected in the following periods of time: 0-2, 2-6, 6-24 h. Due to the small volume of the urine from mice, the collecting system in the cage was washed with water at each collecting time. Urine samples and their wash samples were analyzed according to the same methods used in the beagle dog study (Example 24).
(§1) The same study was repeated with APL-1092, nitroxoline lysine salt.

[3] = In vivo urinary excretion of nitroxoline and nitroxoline salts in beagle dogs
Procedure: Urine samples were collected in the following periods of time: 0-2, 2-4, 4-6, 6-8, 8-24 h. Urine samples were analyzed by LC/MS/MS method utilizing an Agilent 1100 HPLC system with a CTC auto-sampler, an AB API4000 mass spectrometer, and a column of ACQUITY UPLC BEH C18 (2.1*50 mm) Dexamethasone was used as an internal standard. […] The range of linearity was determined to be 25˜5000 ng/mL.
as §1

[4] = distilled water, 25 °C, water, distilled water, 25±2° C., read-out: Solubility water
[5] = pH 1.2 buffer (dilute HCl), 25 °C, pH 1.2, simulated gastric fluid, pH=1.2 buffer, 25±2° C., read-out: Solubility pH 1.2
[6] = pH 4.5 acetate buffer, 25 °C, pH 4.5, aqueous buffer, pH=4.5 buffer, 25±2° C., read-out: Solubility pH 4.5
[7] = pH 5.0 phosphate buffer, 25 °C, pH 5, aqueous buffer, pH=5.0 buffer, 25±2° C., read-out: Solubility pH 5
[8] = pH 6.0 acetate buffer, 25 °C, pH 6, aqueous buffer, pH=6.0 buffer, 25±2° C., read-out: Solubility pH 6
[9] = pH 6.8 phosphate buffer, 25 °C, pH 6.8, aqueous buffer, pH=6.8 buffer, 25±2° C., read-out: Solubility pH 6.8
[10] = pH 7.4 phosphate buffer, 25 °C, pH 7.4, aqueous buffer, buffer headed 'pH .4', 25±2° C., read-out: Solubility pH .4
[11] = pH 8.0 phosphate buffer, 25 °C, pH 8, aqueous buffer, pH=8.0 buffer, 25±2° C., read-out: Solubility pH 8.0

Compound: Cl.O=[N+]([O-])c1ccc(O)c2ncccc12 [APL-1071, Nitroxoline HCl Salt]
solubility at 30 min ([1]; aqueous buffers pH 1.2 to 8, 25 °C, pH 1.2, aqueous buffer, all pHs tested, from pH 1.2 to 8, read-out: solubility at all pHs tested): < 100 µg/mL
solubility at 30 min [1, 4]: < 100 µg/mL
solubility at 30 min [1, 5]: < 100 µg/mL
solubility at 30 min [1, 6]: < 100 µg/mL
solubility at 30 min [1, 7]: < 100 µg/mL
solubility at 30 min [1, 8]: < 100 µg/mL
solubility at 30 min [1, 9]: < 100 µg/mL
solubility at 30 min [1, 10]: < 100 µg/mL
solubility at 30 min [1, 11]: < 100 µg/mL

Compound: O=[N+]([O-])c1ccc([O-])c2ncccc12.[Na+] [APL-1072, Nitroxoline Sodium Salt]
solubility at 30 min [1, 4]: 1000 to 10000 µg/mL
solubility at 30 min [1, 5]: < 100 µg/mL
solubility at 30 min [1, 6]: < 100 µg/mL
solubility at 30 min [1, 7]: < 100 µg/mL
solubility at 30 min [1, 8]: < 100 µg/mL
solubility at 30 min [1, 9]: < 100 µg/mL
solubility at 30 min [1, 10]: < 100 µg/mL
solubility at 30 min [1, 11]: < 100 µg/mL
solubility at a physiologically relevant pH [1]: significantly improved solubility

Compound: Br.O=[N+]([O-])c1ccc(O)c2ncccc12 [APL-1074, Nitroxoline HBr Salt]
solubility at 30 min [1, 4]: < 100 µg/mL
solubility at 30 min [1, 5]: 1000 to 10000 µg/mL
solubility at 30 min [1, 6]: < 100 µg/mL
solubility at 30 min [1, 7]: < 100 µg/mL
solubility at 30 min [1, 8]: < 100 µg/mL
solubility at 30 min [1, 9]: < 100 µg/mL
solubility at 30 min [1, 10]: < 100 µg/mL
solubility at 30 min [1, 11]: < 100 µg/mL

Now from value to molecule, other results behind:

solubility at 30 min [1, 6]: < 100 µg/mL
solubility at 30 min [1, 7]: < 100 µg/mL
solubility at 30 min [1, 8]: < 100 µg/mL
solubility at 30 min [1, 9]: < 100 µg/mL
Compound: O=[N+]([O-])c1ccc(O)c2ncccc12 [APL-1075, Nitroxoline HNO3 Salt]

solubility at 30 min [1, 4]: 1000 to 10000 µg/mL
solubility at 30 min [1, 5]: < 100 µg/mL
solubility at 30 min [1, 6]: < 100 µg/mL
solubility at 30 min [1, 7]: < 100 µg/mL
solubility at 30 min [1, 8]: < 100 µg/mL
solubility at 30 min [1, 9]: < 100 µg/mL
solubility at 30 min [1, 10]: < 100 µg/mL
solubility at 30 min [1, 11]: 1000 to 10000 µg/mL
solubility at a physiologically relevant pH [1]: significantly improved solubility
Compound: O=[N+]([O-])c1ccc([O-])c2ncccc12.[K+] [APL-1077, Nitroxoline Potassium Salt]

24-Hr Accumulated drug in the urine ([2]; In Mice, 41.8 mg/Kg APL-1202 or equivalent dose, 41.8 mg/kg): 139 µg
Total mass of nitroxoline in urine and wash, Mean ([2]; mean of mice, oral, equivalent of 41.8 mg/Kg nitroxoline, 0-24 hr, 41.8 mg/kg): 122573 ng
f (%): percentage of total mass of excreted drug versus the dose amount, Mean ([2]; mean of mice, oral, equivalent of 41.8 mg/Kg nitroxoline, 41.8 mg/kg): 22.3%
Mass of nitroxoline, 0~2 wash, Mean ([2]; mean of mice, oral, equivalent of 41.8 mg/Kg nitroxoline, cage wash 0~2 hr, 41.8 mg/kg): 40921 ng
Mass of nitroxoline, 2~6 wash, Mean ([2]; mean of mice, oral, equivalent of 41.8 mg/Kg nitroxoline, cage wash 2~6 hr, 41.8 mg/kg): 4888 ng
Mass of nitroxoline, 6~24 wash, Mean ([2]; mean of mice, oral, equivalent of 41.8 mg/Kg nitroxoline, cage wash 6~24 hr, 41.8 mg/kg): 234 ng
Mass of nitroxoline in urine, 0-2 hr, Mean ([2]; mean of mice, oral, equivalent of 41.8 mg/Kg nitroxoline, urine 0-2 hr, 41.8 mg/kg): 71062 ng
Mass of nitroxoline in urine, 2-6 hr, Mean ([2]; mean of mice, oral, equivalent of 41.8 mg/Kg nitroxoline, urine 2-6 hr, 41.8 mg/kg): 5410 ng
Mass of nitroxoline in urine, 6-24 hr, Mean ([2]; mean of mice, oral, equivalent of 41.8 mg/Kg nitroxoline, urine 6-24 hr, 41.8 mg/kg): 58.8 ng
increase of drug excretion in the urine as compared to nitroxoline ([2]; mice, dosed at the equivalent amount of nitroxoline in moles): approximately two times greater
24-Hr Accumulated drug in the urine ([3]; In Dogs, 75 mg APL-1202 or equivalent amount): 617 µg
increase in drug excretion in the urine as compared to nitroxoline ([3]; beagle dogs, dosed at the equivalent amount of nitroxoline in moles): more than five times
f (%): percentage of total mass of excreted drug versus the dose amount ([3]; individual dogs, oral tablet, 75 mg nitroxoline equivalent): 1.1% and 0.419% and 0.949%
Total mass of nitroxoline in urine ([3]; individual dogs, oral tablet, 75 mg nitroxoline equivalent, 0-24 hr): 825000 ng and 313943 ng and 711720 ng
Mass of nitroxoline in urine, 0-2 hr ([3]; individual dogs, oral tablet, 75 mg nitroxoline equivalent, collection 0-2 hr): 0 ng and 15153 ng and 163020 ng
Mass of nitroxoline in urine, 2-4 hr ([3]; individual dogs, oral tablet, 75 mg nitroxoline equivalent, collection 2-4 hr): 0 ng and 130150 ng and 219300 ng
Mass of nitroxoline in urine, 4-6 hr ([3]; individual dogs, oral tablet, 75 mg nitroxoline equivalent, collection 4-6 hr): 0 ng (2×) and 96900 ng
Mass of nitroxoline in urine, 6-8 hr ([3]; individual dogs, oral tablet, 75 mg nitroxoline equivalent, collection 6-8 hr): 0 ng (2×) and 22165 ng
Mass of nitroxoline in urine, 8-24 hr ([3]; individual dogs, oral tablet, 75 mg nitroxoline equivalent, collection 8-24 hr): 825000 ng and 49575 ng and 329400 ng
f (%): percentage of total mass of excreted drug versus the dose amount, Mean ([3]; mean of dogs, oral tablet, 75 mg nitroxoline equivalent): 0.823%
Total mass of nitroxoline in urine, Mean ([3]; mean of dogs, oral tablet, 75 mg nitroxoline equivalent, 0-24 hr): 616888 ng
Mass of nitroxoline in urine, 0-2 hr, Mean ([3]; mean of dogs, oral tablet, 75 mg nitroxoline equivalent, collection 0-2 hr): 89086 ng
Mass of nitroxoline in urine, 2-4 hr, Mean ([3]; mean of dogs, oral tablet, 75 mg nitroxoline equivalent, collection 2-4 hr): 174725 ng
Mass of nitroxoline in urine, 4-6 hr, Mean ([3]; mean of dogs, oral tablet, 75 mg nitroxoline equivalent, collection 4-6 hr): 96900 ng
Mass of nitroxoline in urine, 6-8 hr, Mean ([3]; mean of dogs, oral tablet, 75 mg nitroxoline equivalent, collection 6-8 hr): 22165 ng
Mass of nitroxoline in urine, 8-24 hr, Mean ([3]; mean of dogs, oral tablet, 75 mg nitroxoline equivalent, collection 8-24 hr): 401325 ng
Compound: O=[N+]([O-])c1ccc(O)c2ncccc12 [APL-1092, Nitroxoline Lysine Salt]
Total mass of nitroxoline in urine and wash ([2]; individual mice, oral, equivalent of 41.8 mg/Kg nitroxoline, 0-24 hr, 41.8 mg/kg): 174297 ng and 118681 ng and 56516 ng and 155110 ng and 87439 ng and 143396 ng
f (%): percentage of total mass of excreted drug versus the dose amount ([2]; individual mice, oral, equivalent of 41.8 mg/Kg nitroxoline, 41.8 mg/kg): 34.7% and 22.3% and 11.1% and 28.4% and 17.7% and 19.8%
Mass of nitroxoline, 0~2 wash ([2]; individual mice, oral, equivalent of 41.8 mg/Kg nitroxoline, cage wash 0~2 hr, 41.8 mg/kg): 113000 ng and 25240 ng and 15015 ng and 25300 ng and 47650 ng and 19320 ng
Mass of nitroxoline, 2~6 wash ([2]; individual mice, oral, equivalent of 41.8 mg/Kg nitroxoline, cage wash 2~6 hr, 41.8 mg/kg): 6055 ng and 3618 ng and 8190 ng and 4635 ng and 4868 ng and 1960 ng
Mass of nitroxoline, 6~24 wash ([2]; individual mice, oral, equivalent of 41.8 mg/Kg nitroxoline, cage wash 6~24 hr, 41.8 mg/kg): 296 ng and 158 ng and 246 ng and 286 ng and 227 ng and 190 ng
Mass of nitroxoline in urine, 0-2 hr ([2]; individual mice, oral, equivalent of 41.8 mg/Kg nitroxoline, urine 0-2 hr, 41.8 mg/kg): 51600 ng and 84300 ng and 31970 ng and 107380 ng and 31122 ng and 120000 ng
Mass of nitroxoline in urine, 2-6 hr ([2]; individual mice, oral, equivalent of 41.8 mg/Kg nitroxoline, urine 2-6 hr, 41.8 mg/kg): 3308.5 ng and 5263.2 ng and 1084 ng and 17458 ng and 3500 ng and 1846 ng
Mass of nitroxoline in urine, 6-24 hr ([2]; individual mice, oral, equivalent of 41.8 mg/Kg nitroxoline, urine 6-24 hr, 41.8 mg/kg): 37.5 ng and 101.64 ng and 10.4 ng and 51 ng and 73 ng and 79.6 ng
